In US5101072A, “Sulfonylhydrazines and their use as antineoplastic agents and as antitrypanosomal agents” (Yale University, priority 1989, dated 1992):

Experiments:
L1210 leukemia = experiment: Survival time of mice bearing the L1210 leukemia; format: in vivo; details: for 60-day cures, % / % T/C (average survival time of treated/control animals × 100): L1210, at optimum effective daily dose, once daily × 6 days
Protocol: The tumor-inhibitory properties of several compounds, e.g., 1,2-bis(methylsulfonyl)-1-methylhydrazine, 1-methyl-1,2,2-tris(methylsulfonyl)hydrazine, 1,2-bis(methylsulfonyl)-1,2-dimethylhydrazine and 1-(2-chloroethyl)-1,2,2-tris(methylsulfonyl)hydrazine were determined by measuring the effects of these agents on the survival time of mice bearing the L1210 leukemia as described by K. Shyam, L. A. Cosby, and A. C. Sartorelli, J. Med. Chem., 28, 525-527 (1985).
^a Administered once daily for 6 consecutive days, beginning 24 hours
after tumor transplantation with 5-10 animals being used per group.
^b Average change in body weight from onset to termination of therapy
(§1) ^c % T/C = average survival time of treated/control animals ×

Lethality in normal mice = format: in vivo
Protocol: A single intraperitoneal dose of 1.2 g/kg or six daily intraperitoneal doses of 200 mg/kg of MeSO2 N(CH2 CH2 Cl)N(SO2 Me)2 produced no lethality in normal mice. Thus, the relatively great efficacy of this compound against the L1210 and P-388 leukemias and its relative lack of toxicity makes it an agent of significant promise.

P388 leukemia = experiment: % T/C and 60-day cures vs. P388 leukemia; format: in vivo, mice; details: 60 mg/kg/day
Protocol: as §1
^d % T/C vs. P388 leukemia = 218 (80% 60day cures) at 60 mg/kg/day

T. rhodesiense = experiment: Oral trypanocidal activity (preliminary); format: in vivo, T. rhodesiense; mice; details: aqueous solutions, preliminary results
Source text: Orally active trypanocidal agents are desirable since, in areas where trypanosomiasis is endemic, other routes of drug administration frequently present problems.

[1] = test system: T. rhodesiense (Y Tat 1.1); experiment: Survival time of CD-1 mice infected with T. rhodesiense (trypanocidal activity); format: in vivo, T. rhodesiense (Y Tat 1.1); CD-1 mice; details: for Mean Extension of Life (Table III): administered in 0.05 ml of DMSO, dose not given
Protocol: The trypanocidal properties of several methylating agents including MeSO2 N(Me)N(SO2 Me)2 and MeSO2 N(Me)N(Me)SO2 Me were determined by measuring their effects on the survival time of CD-1 mice infected with T. rhodesiense (Y Tat 1.1), a pleimorphic strain that produces a non-relapsing disease in mice. The level of parasites in the bloodstream and body fluids increases by approximately 10-fold per day and the animals die when the parasite burden exceeds 1 to 2×10^9 cells/ml. Infection with a single viable parasite will kill a mouse in approximately 9 to 10 days.
Mice were infected ip with approximately 10^6 trypanosomes/mouse in phosphate buffered saline containing glucose. This level of parasites produces death in 4 days post-infection. These mice were treated (ip) with a single dose of drug dissolved in the appropriate vehicle 3 days after infection, when the parasitemia was 1 to 3×10^8 cells/ml of blood and the mice, if untreated, would survive for only 24 additional hours. The number of days the mice survived beyond that of the untreated controls was used as a measure of trypanocidal activity. The level of parasitemia in treated mice was measured at regular intervals to distinguish between parasite-related and drug toxicity-related deaths. No toxic deaths were observed. Mice that survived for 30 days without detectable parasitemias were considered cured. The effects of a single dose of various methylating agents on the survival time of trypanosome-bearing mice are summarized in Table II.
^a Drug that was administered was dissolved in 0.5 ml of phosphate
buffered saline containing glucose.
^b Drug that was administered was dissolved in 0.05 ml of DMSO.

[2] = Hydrolysis / decomposition in aqueous solution; format: physicochemical; details: 50 μM solution, phosphate buffered saline (pH 7.6), 37° C.
Protocol: In the case of 1,2,2-tris(methylsulfonyl)-1-methylhydrazine, this reaction occurs slowly. A 50 μM solution of this compound hydrolyzes at an initial rate of 1% per minute in phosphate buffered saline (pH 7.6) at 37° C.
Hydrolysis is expected to occur preferentially at N-2 to generate the 1,2-bis(sulfonyl)-1-methylhydrazine. The sulfonic acid and 1,2-bis(sulfonyl)-1-methylhydrazine that are generated are both ionized under these conditions. The release of protons can be used to follow the decomposition of these and related compounds. The release of protons can be assayed by following the decrease in absorbance at 560 nm of a weakly buffered (1 mM potassium phosphate) phenol red (21 mg/l) solution; initial pH 7.6 at 37° C. The assay can be calibrated using HCl standards.
(§2) The reaction of 1,2-bis(sulfonyl)-1-methylhydrazine with water at pH 7.4-7.6 at 37° C. can be followed by proton release and/or methanol generation. Methanol generation can be assayed using alcohol oxidase and measuring the resultant O2 consumption using a Gilson oxygraph. This assay can be calibrated using methanol standards. The reaction of 1,2-bis(sulfonyl)-1-methylhydrazine with water is relatively fast [a 50 μM solution of 1,2-bis(methylsulfonyl)-1-methylhydrazine decomposes at an initial rate of 12-15% per minute in phosphate buffered saline (pH 7.6) at 37° C.] compared to the hydroylsis of 1,2,2-tris(methylsulfonyl)-1-methylhydrazine. RSO2 N=NMe may also decompose by a free radical mechanism to a smaller extent and methylate by the generation of methyl radicals.

[3] = Methanol generation in vitro (spontaneous breakdown to generate reactive methyl groups); format: physicochemical; details: relative; PhSO2 N(Me)NHSO2 Ph = 1.0
Protocol: as §2
Methanol was produced by these agents in aqueous solutions free from strong competing nucleophiles. Formation of this alcohol was used as a measure of the rate of spontaneous breakdown of these compounds to generate reactive methyl groups. […] These findings provide strong evidence that methylation is essential for the observed biological activity of these compounds.

[4] = mice bearing L1210, at optimum effective daily dose
[5] = single ip dose 0.2 mmol/kg in 0.05 ml of DMSO
[6] = single ip dose 0.2 mmol/kg in 0.5 ml phosphate buffered saline containing glucose

With CS(=O)(=O)N(CCCl)N(S(C)(=O)=O)S(C)(=O)=O [MeSO2 N(CH2 CH2 Cl)N(SO2 Me)2, 1-(2-chloroethyl)-1,2,2-tris(methylsulfonyl)hydrazine] the “60-day "cures" of the L1210 leukemia” value (L1210 leukemia; 40 and 60 mg/kg per day×6) was 60-day "cures" of the L1210 leukemia, the “60-day cures, %” value (L1210 leukemia) was 100% and the “AvΔ Wt, % (average change in body weight from onset to termination of therapy)” value (L1210 leukemia; [4]) was -7.2%. For the same molecule, the “Activity against the L1210 leukemia (in words)” value (L1210 leukemia; mouse, in vivo) was “exceedingly active”, the “Lethality in normal mice” value (Lethality in normal mice; single intraperitoneal dose of 1.2 g/kg) was “no lethality” and the “Lethality in normal mice” value (Lethality in normal mice; six daily intraperitoneal doses of 200 mg/kg) was “no lethality”. For the same molecule, the “60-day cures vs. P388 leukemia” value (P388 leukemia) was 80% and the “% T/C vs. P388 leukemia” value (P388 leukemia) was 218%.

In the case of CS(=O)(=O)N(CCI)N(S(C)(=O)=O)S(C)(=O)=O [MeSO2 N(CH2 CH2 I)N(SO2 Me)2, 1-(2-iodoethyl)-1,2,2-tris(methylsulfonyl)hydrazine], the “60-day cures, %” value (L1210 leukemia) is reported as 0%, the “% T/C (average survival time of treated/control animals × 100)” value (L1210 leukemia) is reported as 110% and the “AvΔ Wt, % (average change in body weight from onset to termination of therapy)” value (L1210 leukemia; [4]) is reported as “+8.0%”.

In the case of CS(=O)(=O)OCCN(N(S(C)(=O)=O)S(C)(=O)=O)S(C)(=O)=O [MeSO2 N(CH2 CH2 OSO2 Me)N(SO2 Me)2, 1-(2-methylsulfonyloxy)ethyl-1,2,2-tris(methylsulfonyl)hydrazine], the “60-day cures, %” value (L1210 leukemia) is reported as 0%, the “% T/C (average survival time of treated/control animals × 100)” value (L1210 leukemia) is reported as 198% and the “AvΔ Wt, % (average change in body weight from onset to termination of therapy)” value (L1210 leukemia; mouse, in vivo) is reported as -4.2%.

With CN(N(C)S(C)(=O)=O)S(C)(=O)=O [MeSO2 N(Me)N(Me)SO2 Me, 1,2-Bis(methylsulfonyl)-1,2-dimethylhydrazine] the “Trypanocidal activity on oral administration compared with Table II” value (T. rhodesiense) was “comparable activity to that reported in Table II”, the “60-day cures, %” value (L1210 leukemia) was 0% and the “% T/C (average survival time of treated/control animals × 100)” value (L1210 leukemia) was 158%. For the same molecule, the “AvΔ Wt, % (average change in body weight from onset to termination of therapy)” value (L1210 leukemia; mouse, in vivo) was -11.3%, the “cure (30 days without detectable parasitemias)” value [1, 5] was 25% and the “Mean Extension of Life for relapsing animals” value ([1]; single ip dose 0.2 mmol/kg in 0.05 ml of DMSO, relapsing animals) was 9.7 days.

In the case of CN(N(S(C)(=O)=O)S(C)(=O)=O)S(C)(=O)=O [MeSO2 N(Me)N(SO2 Me)2, 1-Methyl-1,2,2-tris(methylsulfonyl)hydrazine], the “Trypanocidal activity on oral administration compared with Table II” value (T. rhodesiense) is reported as “comparable activity to that reported in Table II”, the “60-day cures, %” value (L1210 leukemia) is reported as 0% and the “% T/C (average survival time of treated/control animals × 100)” value (L1210 leukemia) is reported as 186%. The “AvΔ Wt, % (average change in body weight from onset to termination of therapy)” value (L1210 leukemia; mouse, in vivo) was -7.7%, the “Mean Extension of Life” value [1, 5] was 7.7 days and the “cure (30 days without detectable parasitemias)” value ([1]; single ip dose 1.0 mmol/kg in 0.05 ml of DMSO) was 100%. The “Initial rate of hydrolysis / decomposition” value [2] was 1 % per minute.

In the case of COc1ccc(S(=O)(=O)NN(C)S(C)(=O)=O)cc1 [MeSO2 N(Me)NHSO2 C6 H4 -p-OMe], the “Mean Extension of Life” value [1, 5] is reported as 4.5 days.

For COS(C)(=O)=O [MeSO2 OMe], the “Mean Extension of Life” value [1, 5] was 1.0 days.

For CN(N=O)C(N)=O [N-Methyl-N-nitrosourea], the “Mean Extension of Life” value [1, 5] was 8.0 days.

In the case of CN(NC(=O)c1ccccc1)C(=O)c1ccccc1 [PhCON(Me)NHCOPh], the “Mean Extension of Life (Table III)” value [1] is reported as 0 days and the “Relative Methanol Generation in vitro” value [3] is reported as 0.

In the case of CN(NS(=O)(=O)c1ccccc1)S(=O)(=O)c1ccccc1 [PhSO2 N(Me)NHSO2 Ph], the “Mean Extension of Life (Table III)” value [1] is reported as 5 days, the “Mean Extension of Life” value [1, 5] is reported as 5.0 days and the “Relative Methanol Generation in vitro” value [3] is reported as 1.0.

With O=S(=O)(NNS(=O)(=O)c1ccccc1)c1ccccc1 [PhSO2 NHNHSO2 Ph] the “Mean Extension of Life (Table III)” value [1] was 0 days and the “Relative Methanol Generation in vitro” value [3] was 0.

With CNNCc1ccc(C(=O)NC(C)C)cc1 [Procarbazine, procarbazine] the “Mean Extension of Life” value [1, 6] was 5.0 days.

In the case of CN(N=O)C(=O)N[C@H]1C(O)O[C@H](CO)[C@@H](O)[C@@H]1O (stereo partly drawn) [Streptozotocin, streptozotocin], the “Mean Extension of Life” value [1, 6] is reported as 4.3 days.
